Measurements published in patent US10363251B2, “(+)-morphinans as antagonists of toll-like receptor 9 and therapeutic uses thereof” (Mallinckrodt LLC, priority 2009, dated 2019).
Read-outs that look alike come from different tables or passages of the source.

Target: T1, TLR9 (Homo sapiens, UniProt Q9NR96)
T1 construct: expressed in transfected cells; host or cells: HEK293
T1 sequence (Q9NR96 26-1032): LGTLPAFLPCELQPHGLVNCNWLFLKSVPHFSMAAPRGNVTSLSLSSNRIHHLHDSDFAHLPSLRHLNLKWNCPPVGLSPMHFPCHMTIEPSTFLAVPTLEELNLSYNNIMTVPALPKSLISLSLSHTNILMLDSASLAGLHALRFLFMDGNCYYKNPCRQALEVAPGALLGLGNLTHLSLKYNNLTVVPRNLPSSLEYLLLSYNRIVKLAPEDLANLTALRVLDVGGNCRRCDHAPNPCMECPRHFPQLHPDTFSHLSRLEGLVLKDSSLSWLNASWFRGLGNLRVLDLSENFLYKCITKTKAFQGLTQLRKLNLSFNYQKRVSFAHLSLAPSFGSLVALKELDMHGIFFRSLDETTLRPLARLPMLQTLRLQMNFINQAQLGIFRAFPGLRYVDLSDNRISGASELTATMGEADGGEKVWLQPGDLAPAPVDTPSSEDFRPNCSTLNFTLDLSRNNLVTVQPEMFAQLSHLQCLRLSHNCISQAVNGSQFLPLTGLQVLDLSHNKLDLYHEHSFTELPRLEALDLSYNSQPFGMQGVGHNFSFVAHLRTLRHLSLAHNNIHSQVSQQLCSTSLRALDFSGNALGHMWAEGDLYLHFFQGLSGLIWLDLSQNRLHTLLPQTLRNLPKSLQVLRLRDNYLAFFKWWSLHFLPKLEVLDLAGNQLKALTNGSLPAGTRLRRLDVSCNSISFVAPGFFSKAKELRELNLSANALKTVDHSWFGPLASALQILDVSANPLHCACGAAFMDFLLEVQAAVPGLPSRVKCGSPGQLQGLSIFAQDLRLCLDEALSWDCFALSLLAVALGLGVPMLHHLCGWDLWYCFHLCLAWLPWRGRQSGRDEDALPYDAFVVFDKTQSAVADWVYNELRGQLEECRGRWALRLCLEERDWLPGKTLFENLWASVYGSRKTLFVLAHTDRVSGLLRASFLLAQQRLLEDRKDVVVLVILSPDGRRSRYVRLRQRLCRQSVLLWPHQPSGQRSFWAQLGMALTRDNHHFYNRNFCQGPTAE
Assay: TLR9 screening of (+)-morphinan library, SEAP reporter in HEK293 cells expressing TLR9
Format: cell-based
Details: activator ODN2006; for OD 650 nm (mean ± sd): control (no activator) 0.14, activator 1.42 OD
Description: The secreted alkaline phosphatase reporter is under the control of a promoter inducible by the transcription factor NF-κB. A library of more than 100 (+)-morphinan compounds was screened for TLR9 antagonist activity by assessing NF-κB activation in the HEK293 cells expressing TLR9. This reporter gene allows the monitoring of signaling through the TLR, based on the activation of NF-κB.
In a 96-well plate (200 μL total volume) containing 50,000 cells/well, 20 μL of each sample compound was added to wells, in triplicate, followed by a 30 minute incubation at 37° C. and 5% CO2. After the 30 minutes of incubation, 20 μL of the activator ODN2006 was added to each well. The media added to the wells was designed for the detection of NF-κB induced SEAP expression. After a 16-20 hr incubation period, the OD at 650 nm was read on a Beckman Coulter AD 340C Absorbance Detector. All compounds were tested at concentrations of 10 μM and 100 nM.

[1] = HEK293, read-out: % Inhibition (mean), 100 nM
[2] = HEK293, read-out: % Inhibition (mean), 10 μM

| Structure (SMILES) | OD 650 nm (mean ± sd) (100 nM) [OD] | OD 650 nm (mean ± sd) (10 μM) [OD] | inhibition at 0.1 µM [1] [%] | inhibition at 10 µM [2] [%] | % Inhibition (mean) (100 nM, 0.1 µM) [%] | % Inhibition (mean) (10 μM) [%] | inhibition at 0.1 µM (HEK293, 100 nM, read-out: % Inhibition (mean)) [%] | inhibition at 10 µM (HEK293, 10 μM, read-out: % Inhibition (mean)) [%] |
| --- | --- | --- | --- | --- | --- | --- | --- | --- |
| COc1cc(C(C)C)c2c3c1O[C@@H]1C(=O)CCC4C(C2)N(CC2CC2)CC[C@]341 (stereo partly drawn) [II-4] | 1.18 ± 0.06 | 0.11 ± 0.01 | 17 | 92 | – | – | – | – |
| COC1=CC=C2[C@@H]3Cc4c(Br)cc(OCc5ccccc5)c5c4[C@]2(CCN3CC2CC2)[C@@H]1O5 [II-86] | 1.15 ± 0.11 | 0.13 ± 0.03 | 19 | 91 | – | – | – | – |
| COc1cc(Br)c2c(c1O)[C@@]13CCNC(C2)C1CCC(=O)C3 (stereo partly drawn) [Compound I-1] | 1.18 ± 0.10 | 0.21 ± 0.01 | 17 | 85 | – | – | – | – |
| COc1ccc2c(c1OCc1ccccc1)[C@@]13CCN[C@@H](C2)[C@H]1CC(OC)C(=O)C3 (stereo partly drawn) [Compound I-26] | 1.15 ± 0.03 | 0.19 ± 0.02 | 19 | 87 | – | – | – | – |
| CCCNC1CCC2C3Cc4ccc(OC)c5c4[C@]2(CCN3C)C1O5 (stereo partly drawn) [II-91] | 0.12 ± 0.01 | 0.09 ± 0.01 | 92 | 93 | – | – | – | – |
| C=CCN1CC[C@@]23c4c5ccc(OC)c4O[C@@H]2C(=C)CC[C@]3(O)[C@@H]1C5 [II-51] | 1.20 ± 0.04 | 0.84 ± 0.05 | 16 | 41 | – | – | – | – |
| COc1ccc2c3c1O[C@@H]1C(=O)CC[C@@H]4[C@H](C2)N(C(=O)C2CC2)CC[C@@]314 [II-30] | 1.34 ± 0.11 | 1.13 ± 0.06 | – | – | 5 | 20 | – | – |
| COc1ccc2c3c1O[C@@H]1C(=O)CC[C@]4(O)[C@H](C2)N(C(=O)C2CCC2)CC[C@@]314 [II-59] | 1.19 ± 0.07 | 1.41 ± 0.13 | 17 | 1 | – | – | – | – |
| COc1ccc2c3c1O[C@@H]1C(=O)CC[C@@H]4[C@H](C2)N(C(=O)C2CC2)CC[C@@]314 [II-57] | 0.84 ± 0.02 | 1.15 ± 0.03 | – | 19 | 41 | – | – | – |
| COc1ccc2c(c1)CCN(CC1CC1)[C@@H]2Cc1ccc(OC)c(O)c1 [III-3] | 1.03 ± 0.03 | 0.13 ± 0.01 | – | – | – | – | 27 | 91 |
| COc1ccc2c3c1O[C@@H]1C(=O)CC[C@]4(O)[C@H](C2)N(C(C)=O)CC[C@@]314 [II-84] | 1.44 ± 0.06 | 1.51 ± 0.08 | -1 | -6 | – | – | – | – |
| COc1ccc2c3c1O[C@@H]1C(O)CC[C@]4(O)[C@H](C2)N(CC2CCC2)CC[C@@]314 (stereo partly drawn) [II-55] | 1.46 ± 0.08 | 1.17 ± 0.08 | -3 | 18 | – | – | – | – |
| COc1ccc2c3c1O[C@@H]1C(O)CC[C@@H]4[C@H](C2)N(CC2CC2)CC[C@@]314 (stereo partly drawn) [II-17] | 1.13 ± 0.10 | 0.39 ± 0.01 | 21 | 72 | – | – | – | – |
| COc1ccc2c(c1O)[C@@]13CCN(CC4CC4)[C@@H](C2)[C@@]1(O)CC(OC)C(=O)C3 (stereo partly drawn) [Compound I-18] | 1.40 ± 0.14 | 1.01 ± 0.06 | 1 | 29 | – | – | – | – |
| COc1ccc2c3c1O[C@@H]1C(N)CC[C@]4(O)[C@H](C2)N(C)CC[C@@]314 (stereo partly drawn) [II-43] | 0.10 ± 0.01 | 0.09 ± 0.00 | 93 | 94 | – | – | – | – |
